In patent US20110224226A1, “COMPOSITIONS AND METHODS FOR INCREASING BLOOD PLATELET LEVELS IN HUMANS” (AKARX, Inc., priority 2006, published 2011):

Target: T1, human c-Mpl (Homo sapiens, UniProt P40238)
T1 construct: endogenous in cells; host or cells: human platelets
T1 sequence (P40238 26-635): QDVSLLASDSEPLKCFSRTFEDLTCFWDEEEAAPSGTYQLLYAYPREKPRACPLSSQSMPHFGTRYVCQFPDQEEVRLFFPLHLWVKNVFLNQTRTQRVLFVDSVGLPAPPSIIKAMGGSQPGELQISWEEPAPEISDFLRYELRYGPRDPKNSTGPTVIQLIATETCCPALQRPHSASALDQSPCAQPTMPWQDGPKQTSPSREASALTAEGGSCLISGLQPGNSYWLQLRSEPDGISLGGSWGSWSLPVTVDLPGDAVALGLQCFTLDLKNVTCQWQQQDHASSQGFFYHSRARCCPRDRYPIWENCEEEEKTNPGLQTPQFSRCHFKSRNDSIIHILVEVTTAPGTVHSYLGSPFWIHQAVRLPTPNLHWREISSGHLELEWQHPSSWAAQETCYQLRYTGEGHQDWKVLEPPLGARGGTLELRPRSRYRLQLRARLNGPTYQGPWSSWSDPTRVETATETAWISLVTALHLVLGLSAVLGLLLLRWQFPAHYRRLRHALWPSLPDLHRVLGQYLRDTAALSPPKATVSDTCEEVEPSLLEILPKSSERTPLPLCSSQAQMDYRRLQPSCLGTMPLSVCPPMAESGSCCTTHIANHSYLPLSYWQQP
Assay: interference with rhTPO binding to human platelets
Settings: concentrations up to 100 μM

SMILES: O=C(Nc1nc(-c2cc(Cl)cs2)c(N2CCN(C3CCCCC3)CC2)s1)c1cnc(N2CCC(C(=O)O)CC2)c(Cl)c1 [Formula I, 1-(3-chloro-5-{[4-(4-chlorothiophen-2-yl)-5-(4-cyclohexylpiperazin-1-yl)thiazol-2-yl]carbamoyl}pyridin-2-yl)piperadine-4-carboxylic acid]
- interference with rhTPO binding to human platelets: does not interfere
